Laboratory results taken from ChEMBL document CHEMBL3400015, “Tertiary amides of Salinomycin: A new group of antibacterial agents against Bacillus anthracis and methicillin-resistant Staphylococcus epidermidis” (Bioorg Med Chem Lett, 2015).

Tests used:
Staphylococcus aureus [1] = assay: Antimicrobial activity against Staphylococcus aureus ATCC 25923 after 18 hrs by twofold serial broth dilution method; assay type: functional; conditions: ATCC 25923, 18 h
Staphylococcus aureus [2] = assay: Antimicrobial activity against Staphylococcus aureus ATCC 6538 after 18 hrs by twofold serial broth dilution method; assay type: functional; conditions: ATCC 6538, 18 h
Staphylococcus aureus [3] = assay: Antimicrobial activity against Staphylococcus aureus […] after 18 hrs by twofold serial broth dilution method; assay type: functional
[4] = system: Staphylococcus epidermidis; assay: Antimicrobial activity against Staphylococcus epidermidis ATCC 35984 after 18 hrs by twofold serial broth dilution method; assay type: functional; conditions: ATCC 35984, 18 h
Escherichia coli [5] = assay: Antimicrobial activity against Escherichia coli ATCC 10538 after 18 hrs by twofold serial broth dilution method; assay type: functional; conditions: ATCC 10538, 18 h
Escherichia coli [6] = assay: Antimicrobial activity against Escherichia coli NCTC 8196 after 18 hrs by twofold serial broth dilution method; assay type: functional; conditions: NCTC 8196, 18 h
Pseudomonas aeruginosa [7] = assay: Antimicrobial activity against Pseudomonas aeruginosa ATCC 15442 after 18 hrs by twofold serial broth dilution method; assay type: functional; conditions: ATCC 15442, 18 h
Pseudomonas aeruginosa [8] = assay: Antimicrobial activity against Pseudomonas aeruginosa NCTC 6749 after 18 hrs by twofold serial broth dilution method; assay type: functional; conditions: NCTC 6749, 18 h
Bacillus anthracis = assay: Antimicrobial activity against Bacillus anthracis 34F2 after 18 hrs by twofold serial broth dilution method; assay type: functional; conditions: 34F2, 18 h
Staphylococcus aureus [9] = assay: Bactericidal activity against Staphylococcus aureus ATCC 25923 after 24 hrs; assay type: functional; conditions: ATCC 25923, 24 h, read-out: MBC99.9
Staphylococcus aureus [10] = assay: Bactericidal activity against Staphylococcus aureus ATCC 6538 after 24 hrs; assay type: functional; conditions: ATCC 6538, 24 h, read-out: MBC99.9
Staphylococcus aureus [11] = assay: Bactericidal activity against Staphylococcus aureus […] after 24 hrs; assay type: functional; conditions: read-out: MBC99.9
[12] = system: Staphylococcus epidermidis; assay: Bactericidal activity against Staphylococcus epidermidis ATCC 35984 after 24 hrs; assay type: functional; conditions: ATCC 35984, 24 h, read-out: MBC99.9
Escherichia coli [13] = assay: Bactericidal activity against Escherichia coli ATCC 10538 after 24 hrs; assay type: functional; conditions: ATCC 10538, 24 h, read-out: MBC99.9
Escherichia coli [14] = assay: Bactericidal activity against Escherichia coli ATCC 25922 after 24 hrs; assay type: functional; conditions: ATCC 25922, 24 h, read-out: MBC99.9
Escherichia coli [15] = assay: Bactericidal activity against Escherichia coli NCTC 8196 after 24 hrs; assay type: functional; conditions: NCTC 8196, 24 h, read-out: MBC99.9
Pseudomonas aeruginosa [16] = assay: Bactericidal activity against Pseudomonas aeruginosa ATCC 15442 after 24 hrs; assay type: functional; conditions: ATCC 15442, 24 h, read-out: MBC99.9
Pseudomonas aeruginosa [17] = assay: Bactericidal activity against Pseudomonas aeruginosa ATCC 27853 after 24 hrs; assay type: functional; conditions: ATCC 27853, 24 h, read-out: MBC99.9
[18] = system: Staphylococcus epidermidis; assay: Antimicrobial activity against methicillin-resistant Staphylococcus epidermidis isolate 403/10 after 18 hrs by twofold serial broth dilution method; assay type: functional; conditions: isolate 403/10, 18 h
[19] = system: Staphylococcus epidermidis; assay: Antimicrobial activity against methicillin-resistant Staphylococcus epidermidis isolate 404/10 after 18 hrs by twofold serial broth dilution method; assay type: functional; conditions: isolate 404/10, 18 h
[20] = system: Staphylococcus epidermidis; assay: Antimicrobial activity against methicillin-resistant Staphylococcus epidermidis isolate 405/10 after 18 hrs by twofold serial broth dilution method; assay type: functional; conditions: isolate 405/10, 18 h
[21] = system: Staphylococcus epidermidis; assay: Antimicrobial activity against methicillin-resistant Staphylococcus epidermidis isolate 409/10 after 18 hrs by twofold serial broth dilution method; assay type: functional; conditions: isolate 409/10, 18 h
[22] = system: Staphylococcus epidermidis; assay: Antimicrobial activity against methicillin-resistant Staphylococcus epidermidis isolate 422/10 after 18 hrs by twofold serial broth dilution method; assay type: functional; conditions: isolate 422/10, 18 h
[23] = system: Staphylococcus epidermidis; assay: Antimicrobial activity against methicillin-resistant Staphylococcus epidermidis isolate 424/10 after 18 hrs by twofold serial broth dilution method; assay type: functional; conditions: isolate 424/10, 18 h
[24] = system: Staphylococcus epidermidis; assay: Antimicrobial activity against methicillin-resistant Staphylococcus epidermidis isolate 454/11 after 18 hrs by twofold serial broth dilution method; assay type: functional; conditions: isolate 454/11, 18 h
[25] = system: Staphylococcus epidermidis; assay: Antimicrobial activity against methicillin-resistant Staphylococcus epidermidis isolate 455/11 after 18 hrs by twofold serial broth dilution method; assay type: functional; conditions: isolate 455/11, 18 h
[26] = system: Staphylococcus epidermidis; assay: Antimicrobial activity against methicillin-resistant Staphylococcus epidermidis isolate 457/11 after 18 hrs by twofold serial broth dilution method; assay type: functional; conditions: isolate 457/11, 18 h
[27] = system: Staphylococcus epidermidis; assay: Antimicrobial activity against methicillin-resistant Staphylococcus epidermidis isolate 459/11 after 18 hrs by twofold serial broth dilution method; assay type: functional; conditions: isolate 459/11, 18 h
[28] = system: Staphylococcus epidermidis; assay: Antimicrobial activity against methicillin-resistant Staphylococcus epidermidis isolate 461/11 after 18 hrs by twofold serial broth dilution method; assay type: functional; conditions: isolate 461/11, 18 h
[29] = system: Staphylococcus epidermidis; assay: Antimicrobial activity against methicillin-resistant Staphylococcus epidermidis isolate 469/11 after 18 hrs by twofold serial broth dilution method; assay type: functional; conditions: isolate 469/11, 18 h
[30] = system: Staphylococcus epidermidis; assay: Antimicrobial activity against methicillin-resistant Staphylococcus epidermidis isolate 470/11 after 18 hrs by twofold serial broth dilution method; assay type: functional; conditions: isolate 470/11, 18 h
[31] = system: Staphylococcus epidermidis; assay: Bactericidal activity against methicillin-resistant Staphylococcus epidermidis isolate 403/10 after 24 hrs; assay type: functional; conditions: isolate 403/10, 24 h, read-out: MBC99.9
[32] = system: Staphylococcus epidermidis; assay: Bactericidal activity against methicillin-resistant Staphylococcus epidermidis isolate 404/10 after 24 hrs; assay type: functional; conditions: isolate 404/10, 24 h, read-out: MBC99.9
[33] = system: Staphylococcus epidermidis; assay: Bactericidal activity against methicillin-resistant Staphylococcus epidermidis isolate 405/10 after 24 hrs; assay type: functional; conditions: isolate 405/10, 24 h, read-out: MBC99.9
[34] = system: Staphylococcus epidermidis; assay: Bactericidal activity against methicillin-resistant Staphylococcus epidermidis isolate 409/10 after 24 hrs; assay type: functional; conditions: isolate 409/10, 24 h, read-out: MBC99.9
[35] = system: Staphylococcus epidermidis; assay: Bactericidal activity against methicillin-resistant Staphylococcus epidermidis isolate 422/10 after 24 hrs; assay type: functional; conditions: isolate 422/10, 24 h, read-out: MBC99.9
[36] = system: Staphylococcus epidermidis; assay: Bactericidal activity against methicillin-resistant Staphylococcus epidermidis isolate 424/10 after 24 hrs; assay type: functional; conditions: isolate 424/10, 24 h, read-out: MBC99.9
[37] = system: Staphylococcus epidermidis; assay: Bactericidal activity against methicillin-resistant Staphylococcus epidermidis isolate 454/11 after 24 hrs; assay type: functional; conditions: isolate 454/11, 24 h, read-out: MBC99.9
[38] = system: Staphylococcus epidermidis; assay: Bactericidal activity against methicillin-resistant Staphylococcus epidermidis isolate 455/11 after 24 hrs; assay type: functional; conditions: isolate 455/11, 24 h, read-out: MBC99.9
[39] = system: Staphylococcus epidermidis; assay: Bactericidal activity against methicillin-resistant Staphylococcus epidermidis isolate 460/11 after 24 hrs; assay type: functional; conditions: isolate 460/11, 24 h, read-out: MBC99.9
[40] = system: Staphylococcus epidermidis; assay: Bactericidal activity against methicillin-resistant Staphylococcus epidermidis isolate 469/11 after 24 hrs; assay type: functional; conditions: isolate 469/11, 24 h, read-out: MBC99.9
Bacillus subtilis [41] = assay: Genotoxicity in rec-positive Bacillus subtilis H17 at 2 ug/9 mm disc after 24 hrs by disc diffusion method; assay type: toxicity, organism-based
Bacillus subtilis [42] = assay: Genotoxicity in rec-negative Bacillus subtilis M45 at 2 ug/9 mm disc after 24 hrs by disc diffusion method; assay type: toxicity, organism-based

CC[C@@H](C(=O)[C@@H](C)[C@@H](O)[C@H](C)[C@@H]1O[C@@H]([C@@H](CC)C(=O)N(Cc2ccccc2)Cc2ccccc2)CC[C@@H]1C)[C@H]1O[C@]2(C=C[C@@H](O)[C@]3(CC[C@@](C)([C@H]4CC[C@](O)(CC)[C@H](C)O4)O3)O2)[C@H](C)C[C@@H]1C
21 mm: diameter of the inhibition zone (DIZ) (Bacillus subtilis [41])
32 µg/mL: MIC (Staphylococcus aureus [3]) | MIC (Bacillus anthracis) | MIC [19] | MIC [25] | MIC [28] | MIC [29] | MIC [30]
20 mm: diameter of the inhibition zone (DIZ) (Bacillus subtilis [42])
16 µg/mL: MIC (Staphylococcus aureus [2]) | MIC [18] | MIC [21] | MIC [22] | MIC [23] | MIC [26] | MIC [27]
256 µg/mL: MBC (Staphylococcus aureus [10]) | MBC [34] | MBC [35] | MBC [36] | MBC [38]
128 µg/mL: MBC (Staphylococcus aureus [9]) | MBC [12] | MBC [33] | MBC [37]
> 256 µg/mL: MIC (Escherichia coli [5]) | MIC (Escherichia coli [6]) | MIC (Pseudomonas aeruginosa [7]) | MIC (Pseudomonas aeruginosa [8]) | MBC (Staphylococcus aureus [11]) | MBC (Escherichia coli [13]) | MBC (Escherichia coli [14]) | MBC (Escherichia coli [15]) | MBC (Pseudomonas aeruginosa [16]) | MBC (Pseudomonas aeruginosa [17]) | MBC [31] | MBC [32] | MBC [39] | MBC [40]
8 µg/mL: MIC (Staphylococcus aureus [1]) | MIC [4] | MIC [20] | MIC [24]
